Data on three compounds can be found in patent publication US8338422B2, “Indolin-2-ones and aza-indolin-2-ones” (Janssen Pharmaceutica NV, priority 2007, dated 2012).

Structures are written as SMILES. Where “and” joins values, the source holds several entries; their conditions need not be identical. Equal values may be shown once. Bounds are passed on as bounds.

The test system of one test is U87MG. In words: Cellular proliferation assay (Alamar blue), U87MG. Format: cell-based. The settings on record: Homo sapiens, U-87 MG, 72 h, U87MG cells, 72 hours with compound, 10% FCS, read-out: pIC50 U87MG (converted). An outline of the steps: (§1)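 Proliferation was assessed over 72 h of compound treatment, following 24 h of seeding without compound, under 10% FCS, 37° C. and 5% CO2. Fluorescent resazurin product was measured and compared with control cells.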
(Alamar Blue is a resazurin reagent that responds to reducing activity.)

The next test relates to A2780. Briefly: Cellular proliferation assay (Alamar blue), A2780. Format: cell-based. The note with it: Homo sapiens, A2780, 72 h, A2780 cells, 72 hours with compound, 10% FCS, read-out: pIC50 A2780 (converted). An outline of the steps:
as §1

For a further test, the system named is SK-N-SH. In words: Cellular proliferation assay (Alamar blue), SK-N-SH. The class given is cell-based. The settings on record: Homo sapiens, SK-N-SH cells, 72 hours with compound, 10% FCS, read-out: pIC50 SK-N-SH (converted). An outline of the steps:
as §1

A further test has as its system H1299. Briefly: Cellular proliferation assay (Alamar blue), H1299. The class given is cell-based. The settings on record: Homo sapiens, NCI-H1299, 72 h, H1299 cells, 72 hours with compound, 10% FCS, read-out: pIC50 H1299 (converted). An outline of the steps: as §1
Another test relates to DU-145. In words: Cellular proliferation assay (Alamar blue), DU-145. The class given is cell-based. The note with it: Homo sapiens, DU-145 cells, 72 hours with compound, 10% FCS, read-out: pIC50 DU-145 (converted). An outline of the steps:
as §1

A further test concerns the target CDK1/CyclinB (h) (Homo sapiens, UniProt P06493). In words: CDK1/CyclinB human kinase assay (FRET). The settings on record: read-out: CDK1 pIC50 (converted). Format: biochemical. The method in brief: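 Kinase activity was read as the 460/538 nm emission ratio after protease cleavage of unphosphorylated peptide (60 min development). The reaction ran 60 min at room temperature with 10 μM ATP, 2 μM Ser/Thr peptide 12 and 0.2 μg/ml enzyme in Hepes pH 7.5 buffer with MgCl2, EGTA, Brij-35.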

For the next test, the target named is GSK3β (h) (Homo sapiens, UniProt P49841). In words: GSK-3β human kinase assay (SPA). The class given is biochemical. The note with it: read-out: GSK3B pIC50 (converted). An outline of the steps: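 Radiometric SPA read-out: after EDTA stop, biotinylated 33P-labelled peptide bound streptavidin PVT beads and was imaged on Leadseeker. Reaction: 60 min, room temperature, GSK3β (h) at 1 μg/ml, 1 μM substrate peptide, 1 μM ATP with 2 nM [γ-33P]ATP, Tris pH 7.4/MgCl2/DTT buffer.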

The next test concerns MCF-7. In words: Cellular proliferation assay (Alamar blue), MCF-7. Format: cell-based. The note with it: Homo sapiens, MCF7, MCF-7 cells, 72 hours with compound, 10% FCS, read-out: pIC50 MCF-7 (converted). The method in brief:
as §1

Chain of CDK1/CyclinB (h) (P06493 whole entry): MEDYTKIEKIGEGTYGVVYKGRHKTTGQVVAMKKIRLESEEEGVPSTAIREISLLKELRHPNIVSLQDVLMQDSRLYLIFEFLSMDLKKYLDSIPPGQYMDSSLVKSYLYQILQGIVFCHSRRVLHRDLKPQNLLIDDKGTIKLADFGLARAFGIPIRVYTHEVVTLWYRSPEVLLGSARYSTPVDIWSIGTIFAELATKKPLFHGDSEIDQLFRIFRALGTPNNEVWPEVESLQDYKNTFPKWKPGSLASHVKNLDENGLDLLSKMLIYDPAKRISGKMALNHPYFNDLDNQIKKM
Chain of CDK1/CyclinB (h) (P14635 whole entry partner): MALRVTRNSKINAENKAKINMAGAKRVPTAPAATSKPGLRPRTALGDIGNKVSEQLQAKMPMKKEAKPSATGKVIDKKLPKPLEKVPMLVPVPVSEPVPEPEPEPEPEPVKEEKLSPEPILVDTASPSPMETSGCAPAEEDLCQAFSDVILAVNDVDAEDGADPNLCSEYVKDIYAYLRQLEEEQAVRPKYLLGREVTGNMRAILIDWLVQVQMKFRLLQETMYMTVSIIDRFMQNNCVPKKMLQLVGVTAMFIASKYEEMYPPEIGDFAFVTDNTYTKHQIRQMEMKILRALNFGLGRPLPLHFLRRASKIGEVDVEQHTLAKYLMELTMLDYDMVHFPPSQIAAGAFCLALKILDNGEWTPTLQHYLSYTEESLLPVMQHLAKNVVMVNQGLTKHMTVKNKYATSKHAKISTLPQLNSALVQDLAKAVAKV
Chain of GSK3β (h) (P49841 whole entry): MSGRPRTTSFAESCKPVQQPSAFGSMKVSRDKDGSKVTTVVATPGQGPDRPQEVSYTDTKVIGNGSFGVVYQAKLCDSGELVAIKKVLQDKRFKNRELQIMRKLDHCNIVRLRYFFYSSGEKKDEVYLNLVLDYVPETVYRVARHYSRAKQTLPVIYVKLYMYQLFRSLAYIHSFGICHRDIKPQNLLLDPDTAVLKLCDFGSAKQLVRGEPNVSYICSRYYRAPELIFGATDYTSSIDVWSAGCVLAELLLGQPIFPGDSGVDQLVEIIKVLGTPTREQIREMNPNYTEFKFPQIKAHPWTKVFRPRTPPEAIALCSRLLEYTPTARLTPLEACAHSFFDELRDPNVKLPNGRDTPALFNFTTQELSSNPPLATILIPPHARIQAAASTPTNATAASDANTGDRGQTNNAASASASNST

Regarding `COc1ccc2cc1OCCCC(=O)N(C)CCCNc1ncnc3c1/C(=C/N2)C(=O)N3` [Compound 9], the IC50 is 2240 nM in the test on U87MG; 282 nM with A2780; less than 302 nM in the test on SK-N-SH; 407 nM in the test on H1299; less than 302 nM in the test with DU-145; 132 nM and 120 nM at CDK1/CyclinB (h). Moreover, the IC50 on GSK3β (h) was 20.9 nM and 23.4 nM; in the test on MCF-7, less than 302 nM.

For `COc1ccc2cc1OCCCCCC(=O)N1CCN(CC1)c1ncnc3c1/C(=C/N2)C(=O)N3` [Compound 18], the IC50 was more than 10000 nM in the test on SK-N-SH; more than 10000 nM in the test on H1299; more than 10000 nM in the test on DU-145; more than 10000 nM on CDK1/CyclinB (h); 891 nM on GSK3β (h); 5750 nM in the test on MCF-7.

On to `COc1ccc2cc1OCCCC(=O)N(C)CCCN(C)c1ncnc3c1/C(=C/N2)C(=O)N3` [Compound 31], for which the IC50 was 1620 nM in the test with U87MG; 2880 nM with A2780; less than 302 nM in the test with SK-N-SH; 646 nM in the test on H1299; 1230 nM with DU-145; 4680 nM on CDK1/CyclinB (h). Also, the IC50 on GSK3β (h) is 309 nM and 313 nM; with MCF-7, 575 nM.
